Where two headings read alike, the source gives them in different places.
Key:
CDK2/Cyclin E1 = molecular target: T1, CDK2/Cyclin E1 (Homo sapiens, UniProt P24941); assay: CDK2 kinase antagonistic activity assay (TR-FRET); assay type: biochemical
T1 construct: purchased Invitrogen PV6296
Description: (§1) Compounds were dissolved in DMSO and serially diluted 3-fold to generate 11 concentrations. 100 nL of each compound was added to 384-well plates, followed by the addition of 5 µL of 2× CDK2/Cyclin E1 or CDK1/Cyclin B enzyme mixed solution. 5 µL of buffer (50 mM Hepes (pH 7.5), 10 mM MgCl2, 1 mM EDTA, 0.01% Brij-35, 2 mM DTT (prepared freshly)) was added to the complete inhibition control wells. The plates were centrifuged at 1000 rpm for 30 s and incubated at 23 °C for 15 min. Then, 5 µL of 2× MLight-MBP peptide (containing 10 µM ATP) was added to each well of each assay plate. The plates were centrifuged again at 1000 rpm for 30 s and incubated at 23 °C for 90 min.
After the incubation was completed, the reaction was stopped with a detection buffer containing 15 mM EDTA and 2 nM Eu-anti-P-MBP antibody. After centrifugation at 1000 rpm for about 1 min, the plates were incubated at 23 °C for 60 min and read on Perkin Elmer Envision. The TR-FRET ratio (value at 665 nm/value at 615 nm) was automatically calculated by Envision.
(§2) The IC50 values of the compounds were calculated using GraphPad Prism nonlinear fitting equation. Table 1. Kinase activity assay

[1] = Permeability and transporter substrate evaluation, Caco-2 monolayer; assay type: in vitro ADME; details: human, Caco-2, 2.00 µM, 120 min
Description: Cell: Caco-2 cells Instrument: water purification equipment, ELGA LabWate; biosafety cabinet, Nuaire; thermostatic CO2 incubator, Thermo; microplate reader, PerkinElmer; LC-MS/MS, AB SCIEX. Method: The purpose of this study was to determine the two-way permeability of the compounds and evaluate whether they are effluxed and transported by P-glycoprotein (P-gp) using a Caco-2 monolayer cell model. In the experiment, Caco-2 cells were seeded into a 96-well cell plate and cultured for 24 consecutive days for the transport experiment. The compounds were administered bidirectionally at a concentration of 2.00 µM, with or without verapamil. After 120 min of incubation, the samples at the apical end A and the basal end B were collected. The content of the test samples in each sample was measured using the liquid chromatography-tandem mass spectrometry (LC-MS/MS) method. The apparent permeability coefficient and the efflux rate were calculated. Two experimental systems were used successively in this part, with the reference compound (PF-07104091) included. Table 4. Permeability test results

CDK1/Cyclin B = molecular target: T2, CDK1/Cyclin B (Homo sapiens, UniProt P06493); assay: CDK1 kinase activity assay (TR-FRET); assay type: biochemical
T2 construct: purchased Invitrogen PR4768C
T2 sequence (P06493 whole entry): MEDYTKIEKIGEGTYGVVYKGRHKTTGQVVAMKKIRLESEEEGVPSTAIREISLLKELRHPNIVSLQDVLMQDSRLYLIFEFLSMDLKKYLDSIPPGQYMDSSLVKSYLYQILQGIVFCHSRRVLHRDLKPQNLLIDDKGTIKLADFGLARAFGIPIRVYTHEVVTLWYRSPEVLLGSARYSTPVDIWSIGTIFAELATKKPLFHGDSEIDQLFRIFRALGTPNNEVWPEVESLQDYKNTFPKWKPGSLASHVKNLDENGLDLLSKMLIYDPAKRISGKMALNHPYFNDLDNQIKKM
T2 sequence (P14635 whole entry partner): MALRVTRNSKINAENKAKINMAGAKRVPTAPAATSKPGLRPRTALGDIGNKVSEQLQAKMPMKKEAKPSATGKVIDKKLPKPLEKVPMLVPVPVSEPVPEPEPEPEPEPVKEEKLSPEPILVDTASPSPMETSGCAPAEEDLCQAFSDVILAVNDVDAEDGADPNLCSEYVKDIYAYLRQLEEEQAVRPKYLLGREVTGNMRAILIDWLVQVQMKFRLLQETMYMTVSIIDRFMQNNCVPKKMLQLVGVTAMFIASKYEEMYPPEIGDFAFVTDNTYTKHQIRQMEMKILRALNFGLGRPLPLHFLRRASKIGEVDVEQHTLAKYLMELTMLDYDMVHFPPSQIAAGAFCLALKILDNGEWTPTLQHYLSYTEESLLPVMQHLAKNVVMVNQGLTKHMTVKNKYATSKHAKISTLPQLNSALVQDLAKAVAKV
Description: as §1
After the incubation was completed, the reaction was stopped with a detection buffer containing 15 mM EDTA and 2 nM Eu-anti-P-MBP antibody. After centrifugation at 1000 rpm for about 1 min, the plates were incubated at 23 °C for 60 min and read on Perkin Elmer Envision.
as §2

HCT116 cells = assay: Antagonistic effect assay against HCT116 cell proliferation (CellTitle-Glo); assay type: cell-based; details: Homo sapiens, HCT-116, 72 h treatment, 0.01-10.00 µM, read-out: Antiproliferative IC50
Description: Frozen HCT116 cells were rapidly transferred from liquid nitrogen to a 37 °C water bath and rapidly shaken for thawing. The cell suspension was transferred to a 15 mL centrifuge tube and centrifuged at 1500 rpm for 5 min, and the supernatant was discarded. The cell pellet was resuspended in RPMI-1640 complete medium (containing 10% fetal bovine serum and 1% penicillin/streptomycin) and transferred to a cell culture dish containing 10 mL of medium. The cells were cultured in an incubator at 37 °C/5% CO2. The cells were passaged after adhesion to the wall.
HCT116 cells in the logarithmic growth phase and in good condition were taken, digested with a trypsin solution, resuspended in a certain amount of RPMI-1640 complete medium to form a single-cell suspension, counted on a cell counting plate, and seeded into a 96-well white plate at a density of 800 cells/well. The plate was left to stand for 5 min and then incubated in an incubator at 37 °C/5% CO2 overnight. The next day, the cells were treated with the compound at different concentrations, and the control group was treated with DMSO at the corresponding concentration. The compound, dissolved in DMSO, was diluted in RPMI-1640 complete medium at a ratio of 1:1000 to obtain final concentrations of 10.00 µM, 3.33 µM, 1.11 µM, 0.37 µM, 0.12 µM, 0.04 µM, and 0.01 µM. Each group was set up with 3 replicate wells, and 100 µL of the treatment solution was added to each well. The plate was incubated in an incubator at 37 °C/5% CO2 for 72 h.
After 72 h of treatment, the CellTitle-Glo assay was performed. 100 µL of CellTitle-Glo solution was added to each well of the control and treatment groups. The plate was mixed on an oscillator for 2 min to induce cell lysis. The 96-well plate was incubated at room temperature for 10 min to stabilize the luminescence signal value. The luminescence signal was measured using a microplate reader. The DMSO-treated cell group was used as the control group, and 50% inhibitory concentration (IC50) was calculated according to the median effect equation as follows: [formula]
The IC50 values of the compounds were calculated using GraphPad Prism nonlinear fitting equation. Table 2. Results for the inhibitory effect of the compounds of the present disclosure on HCT116 cell proliferation

[2] = In-vitro liver microsomal stability, human; assay type: in vitro ADME; details: human liver microsomes 0.5 mg/mL, 1 µM, NADPH 1 mM, 37 °C
Description: (§3) Method: The metabolic stability of test substances was evaluated by using human, dog, and SD rat liver microsomes. The test substances were incubated with liver microsomes from different species and NADPH in a water bath at 37 °C. In the incubation system, the final concentration of the test or control sample was 1 µM, the final concentration of liver microsomes was 0.5 mg/mL, the final concentration of NADPH was 1 mM, and the final concentration of MgCl2 was 3 mM. At designated time points (5 min, 10 min, 20 min, 30 min, and 60 min), the reaction was stopped by adding a cold acetonitrile solution containing tolbutamide (at a concentration of 200 ng/mL) as an internal standard. For the 0-min sample, the stop solution was added before the addition of the NADPH working solution. Testosterone and dextromethorphan were used as positive control samples in the same conditions to assess the stability and reliability of the system. After sample pretreatment, semiquantitative analysis was performed using the LC-MS/MS method. The retention times of the analytes and internal standard, the acquisition of chromatograms and the integration of chromatograms were processed using software Analyst (AB Sciex, Framingham, Massachusetts, USA). The remaining percentage of the test samples after 60 min of incubation was calculated, and the test results are shown in Table 3. Table 3. Test data for the compounds of the present disclosure in human, dog, and rat liver microsomes

[3] = In-vitro liver microsomal stability, rat; assay type: in vitro ADME; details: SD rat liver microsomes 0.5 mg/mL, 1 µM, NADPH 1 mM, 37 °C
Description: as §3

[4] = In-vitro liver microsomal stability, dog; assay type: in vitro ADME; details: dog liver microsomes 0.5 mg/mL, 1 µM, NADPH 1 mM, 37 °C
Description: as §3

[5] = TR-FRET, peptide mix containing 10 µM ATP, 90 min at 23 °C, read-out: CDK2/Cyclin E1 IC50
[6] = Caco-2, Table 4 experimental system
[7] = Caco-2, Table 5 experimental system
[8] = TR-FRET, peptide mix containing 10 µM ATP, 90 min at 23 °C, read-out: CDK1/Cyclin B1 IC50

IC50 (CDK2/Cyclin E1; [5]) [µM]	IC50 (CDK1/Cyclin B; [8]) [µM]	SMILES	IC50 (HCT116 cells) [µM]	further results
> 1		COCc1cc(C(=O)Nc2cnc([C@H]3CC[C@@H](OC(=O)NC(C)C)C3)s2)n(C)n1 [Compound 36]		
0.00061	0.0285	CCS(=O)(=O)Cc1cc(C(=O)Nc2cc([C@H]3CC[C@@H](OC(=O)NC(C)C)C3)[nH]n2)n(C)n1 [Compound 12]	1.86	
> 1		COCc1cc(C(=O)Nc2[nH]nc3c2C[C@@H](OC(=O)NC(C)C)CC3)n(C)n1 [Compound 41]		
	0.845	COCc1cc(C(=O)Nc2cc([C@H]3CC[C@@H](OC(=O)NC(C)(C)C#N)C3)[nH]n2)n(C)n1 [Compound 5]	> 10	
0.00553	1.02	CC(C)NC(=O)O[C@@H]1CC[C@H](c2cc(Nc3ccc(CN4CCNCC4)cc3)n[nH]2)C1 [Compound 136]	8.43	
> 1		COCc1cc(C(=O)Nc2nnc([C@H]3CC[C@@H](OC(=O)NC(C)C)C3)s2)n(C)n1 [Compound 42]		
0.00107		COCc1cc(C(=O)Nc2cc([C@H]3C[C@@H](F)[C@@H](OC(=O)NC(C)C)C3)[nH]n2)n(C)n1 [Compound 11]	1.61	Remaining amount% at 60 min Dog [4]: 99%; Remaining amount% at 60 min Human [2]: 105%; Remaining amount% at 60 min Rat [3]: 104%
	3.11	CC(C)NC(=O)O[C@@H]1CC[C@H](c2cc(NC3CCN(S(C)(=O)=O)CC3)n[nH]2)C1 [Compound 8]	> 10	
0.00871		COCc1cc(C(=O)Nc2cc([C@H]3CC[C@@H](OC(=O)N4CC5(CCN(C)CC5)C4)C3)[nH]n2)n(C)n1 [Compound 10]	7.11	Remaining amount% at 60 min Dog [4]: 95%; Remaining amount% at 60 min Human [2]: 103%; Remaining amount% at 60 min Rat [3]: 92%

Further lines, the compound ahead of its results:

SMILES	IC50 (CDK2/Cyclin E1; [5]) [µM]	IC50 (CDK1/Cyclin B; [8]) [µM]	IC50 (HCT116 cells) [µM]	further results
COCc1cc(C(=O)Nc2cc(C3CCC(OC(=O)NC(C)C)C3)[nH]n2)n(C)n1 (stereo not shown) [PF-07104091, reference compound]				Papp A→B at 2 h, 2 µM [1, 6]: 1.06 nm/s; Papp B→A at 2 h, 2 µM [1, 6]: 255 nm/s; efflux ratio at 2 h, 2 µM [1, 6]: 241; Papp A→B at 2 h, 2 µM [1, 7]: 43 nm/s; Papp B→A at 2 h, 2 µM [1, 7]: 370 nm/s; efflux ratio at 2 h, 2 µM [1, 7]: 8.57
C=C(C)c1ccncc1O[C@@H]1CO[C@H](c2cc(NC(=O)Cc3cccc(P(C)(C)=O)c3)n[nH]2)C1 [Compound 31]	0.0236	0.496		
CC1(C)CCN1C(=O)O[C@@H]1CC[C@H](c2cc(NC(=O)Cc3ccc(N4CCCC4=O)cc3)n[nH]2)C1 [Compound 24]	0.00258	0.589		Remaining amount% at 60 min Human [2]: 15.4%; Remaining amount% at 60 min Rat [3]: 22.8%
CC(C)NC(=O)O[C@@H]1CC[C@H](c2cc(Nc3ccc(N4CCN(C)CC4)cn3)n[nH]2)C1 [Compound 49]	0.0107		1.3	IC50 (CDK1/Cyclin B): 0.724 µM; Papp A→B at 2 h, 2 µM [1, 7]: 24 nm/s; Papp B→A at 2 h, 2 µM [1, 7]: 122 nm/s; efflux ratio at 2 h, 2 µM [1, 7]: 5.09
CC(C)NC(=O)O[C@@H]1CC[C@H](c2cc(Nc3ccc(CN4CCN(C)CC4)c(F)c3)n[nH]2)C1 [Compound 134]	0.00214		1.13	IC50 (CDK1/Cyclin B): 0.664 µM; Papp A→B at 2 h, 2 µM [1, 7]: 70.8 nm/s; Papp B→A at 2 h, 2 µM [1, 7]: 234 nm/s; efflux ratio at 2 h, 2 µM [1, 7]: 3.3
CC1(C)CCN1C(=O)O[C@@H]1CC[C@H](c2cc(NC(=O)Cc3cccc(P(C)(C)=O)c3)n[nH]2)C1 [Compound 23]	0.00501	1.85		
CC(C)NC(=O)O[C@@H]1CC[C@H](c2cc(Nc3ccc(C4CCN(C)CC4)cn3)n[nH]2)C1 [Compound 51]	0.0069		3.53	IC50 (CDK1/Cyclin B): 0.154 µM
CC(C)NC(=O)O[C@@H]1CC[C@H](c2cc(NC(=O)c3cc(CS(=O)(=O)C4CC4)nn3C)n[nH]2)C1 [Compound 13]	0.00337		2.15	Remaining amount% at 60 min Human [2]: 80.0%; IC50 (CDK1/Cyclin B): 0.0483 µM; Remaining amount% at 60 min Rat [3]: 71.2%
CC(C)NC(=O)O[C@@H]1CC[C@H](c2cc(Nc3ccc(N4CCN(CC(F)F)CC4)cc3)n[nH]2)C1 [Compound 127]	0.0125		9.8	
CCN1CCN(Cc2ccc(Nc3cc([C@H]4CC[C@@H](OC(=O)NC(C)C)C4)[nH]n3)cc2)CC1 [Compound 137]	0.00374	0.976	1.51	
CC1(C)CCN1C(=O)O[C@@H]1CO[C@H](c2cc(NC(=O)Cc3cccc(P(C)(C)=O)c3)n[nH]2)C1 [Compound 30]	0.00822			
CC(C)NC(=O)O[C@@H]1CC[C@H](c2cc(Nc3ccc(N4CCN(CC(F)(F)F)CC4)cc3)n[nH]2)C1 [Compound 128]			9.95	IC50 (CDK2/Cyclin E1): 0.0128 µM
C=C(C)c1ccncc1O[C@@H]1CC[C@H](c2cc(NC(=O)Cc3cccc(P(C)(C)=O)c3)n[nH]2)C1 [Compound 25]	0.00309	0.0112		
C=C(C)c1ccncc1O[C@@H]1CC[C@H](c2cc(NC(=O)Cc3ccc(N4CCCC4=O)cc3)n[nH]2)C1 [Compound 26]	0.00092	0.00027	0.388	
Cn1nc(CS(C)(=O)=O)cc1C(=O)Nc1cc([C@H]2CC[C@@H](OC(=O)N3CCC3(C)C)C2)[nH]n1 [Compound 16]	0.00016		0.847	IC50 (CDK1/Cyclin B): 0.00307 µM

— patent EP4620954A1, “CDK2 INHIBITOR, PREPARATION METHOD THEREFOR, AND USE THEREOF” (Shandong Luye Pharmaceutical Co., Ltd., priority 2022, dated 2024)
